US12667582B2, “Composition containing 2′-FL for ameliorating, preventing or treating diseases caused by reduction of dopamine” (priority 2022, dated 2026)

Assays:
[1] = test system: TH (+) cells in the substantia nigra; assay: Tyrosine hydroxylase (TH) immunohistochemistry of dopaminergic neurons in substantia nigra; assay type: in vivo, mouse; settings: 6-OHDA HBr injected into left striatum; top of FIG. 6
Procedure: The mouse was anesthetized with chloral hydrate (400 mg/kg, ip) and fixed in a stereotaxic frame. 6-OHDA HBr (276 μg/μl×5 μl) was injected through a Hamilton microsyringe into two left striatum sites (1 mm AP, […] relative to bregma and […] and 1 mm AP, […] relative to bregma and […]) for 4 minutes (Day 0). Then, the mouse recovered from anesthesia was maintained at body temperature in a 37° C. incubator for 2 hours.
2′-FL (500 μM×20 μl) and saline (control; 20 μl) were injected into the nose from days 0 to 28. To determine whether or not Parkinson's disease was induced and to observe behavioral changes, methamphetamine was administered to […] and behavioral changes were observed on days 7, 21, and 28, respectively (FIG. 3). FIG. 3 illustrates the timeline of an in vivo experiment.
After the rotation test, the animals were slaughtered and brain tissue was removed therefrom (Veh, n=5; 2′-FL, n=4). The distribution of dopaminergic neurons was measured by immunohistochemistry using tyrosine hydroxylase (TH).
Specifically, the entire brain was sectioned to a thickness of 25 μm using a cryosection machine. […] The brain tissue was bound with a secondary antibody (concentration 1:500) and then was attached to a glass slide and expression was observed using a fluorescence microscope.

[2] = test system: dopaminergic neuron culture from ventral mesencephalon tissue; assay: 6-OHDA-mediated dopaminergic degeneration in primary ventral mesencephalon neuron culture (tyrosine hydroxylase immunocytochemistry); assay type: cell-based, Sprague-Dawley rats; settings: 6-OHDA 100 μM alone, 48 hours, FIG. 2
Procedure: Dopaminergic neuron culture was prepared from ventral mesencephalon tissue of E14-E15 embryos obtained from pregnant Sprague-Dawley rats. Specifically, the dissected ventral brain tissue was pooled and agitated for 15 minutes at 37° C. to separate the cells in pre-warmed trypsin EDTA (025%) and then the cells were washed with DMEM (Dulbecco's modified Eagle medium)/F12 culture medium. After washing, essential growth factors were added thereto, followed by culturing. 50% of the culture medium was replaced with fresh culture medium on the 3rd and 5th days of culture and the result was allowed to stand. From the 7th day of culture, antioxidant factors were excluded.
In addition, on the 10th day of culture, the neurotoxic substances 6-OHDA and 6-OHDA+2′-FL were added to the cells. After 48 hours, the cells were immobilized using 4% PFA (paraformaldehyde; Sigma-Aldrich) (FIG. 1). FIG. 1 illustrates the timeline of an in vitro experiment.
The viability rate of dopamine cells was determined from the immobilized cells using immunocytochemistry using tyrosine hydroxylase. Six samples were used for each group. The composition of each group is shown in Table 1 below and the number of cells was 1×10^6 which was constant for each group.

## NCCc1cc(O)c(O)cc1O [6-OHDA]
[1]
  number of TH (+) cells in the substantia nigra after the toxin: significantly reduced
[2]
  decrease in dopamine cells compared to the normal cell group: caused a severe decrease in dopamine cells
